According to patent US11266686B2, “Metal complexes and methods of treatment” (PROCYPRA THERAPEUTICS LLC, priority 2013, dated 2022):

How the values were obtained:
[1] = Kinetic solubility determination (μDISS Profiler, in situ fiber optic UV); conditions: for dissolved CuATSM as share of the total available in the assay: gluconic acid NCD at the 0.3 hour time point
Procedure: Solubility assays were performed in 25 mL glass vials. Glass vials (4-mL, capped, VWR) were used to prepare stock solutions. All experiments were conducted using μDISS Profiler™ operated by μDISS Command Software (version 5.0.1.0). MB-8 mini-water bath with built-in stirring device was used to provide stirring during solubility measurements. Temperature during experiments was maintained at 25±2° C., and were performed in duplicate.
An HCl/KCl based buffer at pH 1.2 and a simulated intestinal fluid at pH 6.8 (no pancreatin) were prepared according USP protocols (Vol 35/NF30). […] The concentration measurements are performed directly in the dissolution media, with processed results plotted in real time using the μDISS Profiler™ (Pion) instrument. The Profiler uses an in situ fiber optic-dip probe UV apparatus, with the probe center-positioned in the vial holding the studied compounds and 10-20 mL of media. Interference due to background turbidity was minimized when needed by a spectral second derivative method (Avdeef, A; Tsinman, O. “Miniaturized Rotating Disk Intrinsic Dissolution Rate Measurement: Effects of Buffer Capacity in Comparisons to Traditional Wood's Apparatus”, Pharm. Res., 2008, DOI: 10.1007/s11095-008-96-79-z).
The 2 and 20 mm path length tips were selected for detecting the concentration of CuATSM at pH 1.2 and pH 6.8 respectively. A dry CuATSM powder was dissolved in DMSO resulting a stock solution at known concentration, and then the solution was used to generate standard curves by serial addition. Standard curves were determined from the area under the second derivative curve in wavelength range 340-366 nm (for pH 1.2) and 445-465 nm (for pH 6.8) so as to avoid over saturation of the UV signal.
The solubility of CuATSM was determined in pH 6.8 buffer. Samples of CuATSM were introduced into pH 6.8 buffer as powders, thus, unlike for standards, the final solutions contained no solvents in the background. The 20 mm (at pH 6.8) path length tip was selected for detecting the concentration of CuATSM in solution. All experiments were performed at room temperature 25±3° C.
The 20 mm pathlength tip was selected for detecting the concentration of the compounds in pH 6.8 buffer solution. All experiments were performed at room temperature, 25±3° C., and were performed in duplicate.
Kinetic solubility determination of CuATSM:saccharin (1:2). CuATSM:saccharin (1:2) was prepared according to the methods of EXAMPLE 3. The kinetic solubility profile of CuATSM:saccharin (1:2) was determined in pH 6.8 buffer similarly to the methods given in EXAMPLE 13 and EXAMPLE 14. Standard curves of CuATSM:saccharin (1:2) and saccharin were generated and compared to the standard curves of CuATSM. Saccharin concentrations in the buffer solution were determined from the saccharin standard curves in the 292-310 nm wavelength region, using the Zero Intercept Method so as to minimize spectral interference from CuATSM. […] The upper concentration limit of the assay was approximately 0.12 mg/mL of CuATSM:saccharin (1:2), resulting in upper concentrations limits for CuATSM and for saccharin in solution approximately 60 μg/mL each. All experiments were performed at about 25±3° C., and were performed in duplicate.

[2] = Pharmacokinetics in mice after oral administration, plasma and brain by LC/MS/MS; conditions: 30 mg/kg CuXTSM API oral; for Brain AUC0-24h / Brain AUC0-inf / Brain Cmax / Brain Tmax / Brain t½ (number of time points): mouse brain; for Brain t½ (number of time points) / Plasma t½ (number of time points): bracket = number of time points; for Plasma Ke / Plasma MRT / Plasma AUC0-24h / Plasma AUC0-inf / Plasma Cmax / Plasma Tmax / Plasma t½ (number of time points): mouse plasma; for Plasma AUC0-24h / Plasma AUC0-inf / Plasma Cmax / Plasma Tmax: CuATSM in SSV, NCDs in water; for Brain:plasma-ratio (AUC-based) / Brain:plasma-ratio (Cmax-based): mouse
Procedure: CuATSM was suspended in “Standard Suspension Vehicle” (SSV), consisting of 0.9% (w/v) NaCl, 0.5% (w/v) sodium carboxymethylcellulose, 0.5% (v/v) benzyl alcohol, and 0.4% (v/v) Tween 80 in deionized water. All other test compounds were suspended in sterile water. Samples were prepared by adding one of the compounds to the liquid vehicle (water or SSV) in a vial and then vortexing the mixture for 3 min with a stir bar inside. If the powdered sample was not completely wetted or not completely suspended, the sample was vortexed for another minute. If wetting was still incomplete, the vial was sonicated until a fully wetted suspension was obtained. Between doses, the sample was stirred on medium speed and then vortexed for an additional 20 s immediately before the next dose was removed from the vial. All dosing was completed from a single preparation of the suspension within 60 min of adding the compound to water or SSV.
Mice were deprived of pelleted food overnight, during which time 10% dextrose, as Dextroput, was provided in tap water, after which the test items were administrated orally by gavage in water or SSV. […] The blood samples were kept on ice after sampling and centrifuged at +4° C., 1800×g for 5 min to prepare plasma. Plasma samples were extracted and transferred into pre-labelled Eppendorf test tubes (50 μl exact in one vial, and the remaining in a second vial) and frozen at −20° C. The samples were transported on dry ice to the analysis site. Following blood sampling, mice were euthanized by cervical dislocation, and then brains were collected through opened skulls. The brains were weighed and placed in test tubes and placed on water ice. Phosphate-buffered saline (PBS, pH 7.4), 4 ml per 1 g of brain tissue, was added to the test tube and brains were homogenized by using Ultra-Turrax T25 homogenizer/S25N-10G (Setting 2, 9500 rpm, approximately 10 s). The homogenate was frozen at −20° C. immediately after homogenization. The samples were transported on dry ice to the analysis site.
Dosed mice were studied in triplicate for each of the seven time points, totaling 21 mice dosed for each studied compound. Plasma samples and brain homogenates from four untreated animals were also obtained. The plasma samples were thawed at room temperature (RT), mixed with 2-fold volume of acetonitrile, shaken and centrifuged for 10 min at 13 000×g (Heraeus Pico 17 centrifuge), after which supernatants were transferred into glass vials. The brain homogenate samples were mixed with 2-fold volume of acetonitrile:methanol, shaken, ultrasonicated for 20 min, and centrifuged for 10 min at 13 000×g (Heraeus Pico 17 centrifuge), after which supernatants were transferred into glass vials. […] Quality control (QC) samples were prepared for concentrations 10, 100 and 1000 ng/ml in plasma or brain homogenates.
Elution was with gradient of 0.5% formic acid/acetonitrile (99:1) increased step-wise to (5:95).
The pharmacokinetic parameters for study compounds in plasma and brain were calculated using standard non-compartmental methods. The elimination phase half-life (t½) was calculated by least-squares regression analysis of the terminal linear part of the log concentration-time curve. […] The maximum concentration (Cmax) and the time to Cmax (Tmax) were derived directly from the concentration data. Mean Residence Time, MRT, and elimination rate constant, Ke, were also calculated from the concentration vs. time data of plasma samples.

[3] = pH 6.8 buffer, powder added, 25±3° C., 12-hour monitoring

| Compound | Brain AUC0-24h [2] [ng·min/g] | Brain AUC0-inf [2] [ng·min/g] | Brain Cmax [2] [ng/g] | Brain Tmax [2] [h] | Brain t½ (number of time points) [2] | Plasma Ke [2] [min⁻¹] | Plasma MRT [2] [h] | Plasma AUC0-24h [2] | Plasma AUC0-inf [2] [ng·min/mL] | Plasma Cmax [2] [ng/mL] | Plasma Tmax [2] [h] | Plasma t½ (number of time points) [2] | Brain:plasma-ratio (AUC-based) [2] | Brain:plasma-ratio (Cmax-based) [2] | time to maximum concentration of CuATSM ([1]; pH 6.8 buffer, 25±3° C.) [h] | maximum concentration of CuATSM in solution [1, 3] | dissolved CuATSM as share of the total available in the assay ([1]; pH 6.8 buffer) | also measured |
| --- | --- | --- | --- | --- | --- | --- | --- | --- | --- | --- | --- | --- | --- | --- | --- | --- | --- | --- |
| CNC1=NN=C(C)C(C)=NN=C(NC)[S][Cu][S]1 [CuATSM, Copper(II) diacetyl-di(N4-methyl)thiosemicarbazone, reference compound] | 10944 | 13843 | 28.4 | 1 | 199 (3) min | 0.0035 | 5.25 | 9637 ng·min/mL | 9698 | 22.2 | 2 | 196 (4) min | 1.1 | 1.3 |  |  |  | concentration of CuATSM at the end of the 12-hour monitoring period ([1]; pH 6.8): remained at that concentration; time to maximum concentration of CuATSM ([1]; pH 6.8): approximately 8 hours |
| CNC1=NN=C(C)C(C)=NN=C(NC)[S][Cu][S]1.O=C(O)C(O)C(O)C(O)C(O)CO.O=C(O)C(O)C(O)C(O)C(O)CO [CuATSM:gluconic acid (1:2)] | 71554 | 73544 | 133 | 4 | 261 (3) min | 0.0028 | 5.95 | 25 163 min*ng/mL | 25696 | 36.5 | 4 | 252 (3) min | 2.8 | 3.6 | ≤ 0.11 | approximately 3 μg/mL | less than 1% | solubility in DMSO (did not fully dissolve at) ([1]; DMSO stock solution): < 400 µg/mL; time to maximum concentration of CuATSM ([1]; pH 1.2 KCl/HCl buffer): ≤ 0.3 h; maximum concentration of CuATSM in solution ([1]; pH 1.2 KCl/HCl buffer, 3-hour monitoring): approximately 195 μg/mL; dissolved CuATSM as share of the total amount of CuATSM in the sample ([1]; pH 1.2 buffer, within 0.3 hours, kept for 3 hours): 33%; change in the chemical identity of CuATSM after dissolution (UV spectral shifts) ([1]; pH 6.8 buffer, 450 nm shifted to 415 nm within the first 0.3 hours): reaction or decomposition |
| CNC1=NN=C(C)C(C)=NN=C(NC)[S][Cu][S]1.O=C1NS(=O)(=O)c2ccccc21.O=C1NS(=O)(=O)c2ccccc21 [CuATSM:saccharin (1:2)] | 30643 | 30979 | 71.8 | 0.25 | 202 (2) min | 0.0040 | 6.25 | 20 333 min*ng/mL | 20436 | 29.0 | 2 | 170 (2) min | 1.5 | 2.5 | ≤ 0.8 | approximately 2 μg/mL | less than 1% | time to maximum concentration of saccharin ([1]; pH 6.8 buffer): ≤ 0.3 h; concentration of CuATSM at the end of the 12-hour monitoring period ([1]; pH 6.8 buffer, 25±3° C.): approximately 1 μg/mL; maximum concentration of saccharin in solution ([1]; pH 6.8 buffer, unchanged over the 12-hour monitoring period): approximately 60 μg/mL |
